# Source: patent US11026940B2, “Compositions for the mobilization, homing, expansion and differentiation of stem cells and methods of using the same” (Ampio Pharmaceuticals, Inc., priority 2013, dated 2021)
# Where “and” joins values, the source holds several entries; their conditions need not be identical. Equal values may be shown once.
# Experiments:
# Collagen 2A1 = assay: Stem cell chondrogenesis, real time PCR gene expression: Collagen 2A1; format: cell-based, human; settings: for Cp Coll / Mean regulation: Collagen 2A1; for Cp Coll / Mean regulation / Mean ΔCp: Day 22; for Mean regulation: vs saline; for Mean ΔCp: Collagen 2A1 vs GAPDH; for regulation, Collagen 2A1 / Mean regulation, Collagen 2A1: fold regulation vs saline; for regulation, Collagen 2A1 / ΔCp, Collagen 2A1 / 2^-ΔΔCp vs saline, Collagen 2A1 / ΔΔCp vs saline, Collagen 2A1: single replicate well; for Mean regulation, Collagen 2A1 / Mean ΔCp, Collagen 2A1: triplicate wells; for ΔCp, Collagen 2A1: human bone marrow MSC, chondrogenic medium + TGF beta 3; for ΔCp, Collagen 2A1 / 2^-ΔΔCp vs saline, Collagen 2A1 / ΔΔCp vs saline, Collagen 2A1 / Mean ΔCp, Collagen 2A1: vs Actin
# Protocol: (§1) • Stem Cells: Bone marrow derived human mesenchymal stem cells: Passage 5 Bone marrow derived human mesenchymal stem cells (HUXMA-01001, Cyagen Biosciences, Sunnyvale Calif.) • Mesenchymal Stem Cell Chondrogenic Differentiation medium (GUXMX-90041, Cyagen Biosciences, Sunnyvale Calif.) • TheraPEAK MSCGM chemically defined Stem cell medium (190632 Lonza) • 1 mM Dexamethasone acetate and mifepristone in absolute ethanol (Sigma) • Saline or 0.9% Sodium chloride for injection ZR Flush (Excelsior Medical, Neptune N.J.) • Sterile filtered 0.6 mM sodium caprylate in saline (sigma) • Sterile filtered 3 mM NAT in saline (sigma); To prepare, heat at 60° C. for 30 minutes then sonicate for 5 minutes. • Sterile filtered 10 mM DADKP in saline • 0.2 μM syringe filters • Hepes buffered saline, Trypsin/EDTA, Trypsin neutralizing solution (Lonza reagent pack) • 182 cm2 tissue culture flasks • pipettes and sterile tips • Tissue culture hood, humidified CO2 incubator, water or bead bath • 24 well tissue culture plates • Qiagen RNeasy plus spin columns (Qiagen 74134) • Qiagen RT2 qPCR primer pairs for Collagen 2A1, MMP13, TIMP1, Aggrecan, GAPDH, and Actin B • Roche Sybr green I master mix and Invitrogen Superscript VILO master mix. • Roche 480 lightcycler
# (§2) The following stock drug treatment solutions were prepared in saline for injection and warmed to 37° C. in bath: • 4 μM dexamethasone • 4 μM mifepristone • 3 mM NAT • 0.6 mM caprylate • 80 μM DADKP • Mix of 3 mM NAT, 0.6 mM caprylate, 80 μM DADKP (“Ampion” mix)
# (§3) Cyagen Chondrogenic Differentiation medium was prepared by manufacturer protocols but excluding dexamethasone and TGF beta 3 supplements, and warmed to 37° C. in bath.
# (§4) The treatment protocol included expanding 5 HUXMA stem cells in 182 cm^2 flasks containing 40 mls TheraPEAK™ MSCGM to 80-90% confluence. Cells were trypsinized from the flasks and a 1.0×10^7 cell suspension of HUXMA stem cells was warmed in Cyagen Chondrogenic Differentiation medium. 20 μl of warmed cell suspension was spotted in the middle of each well of a 24-well tissue culture plate (200,000 cells per spot), and incubated at 37° C. and 5% CO2 for one hour.
# (§5) The plates were removed from the incubator and an additional 720 μl chondrogenic medium was added to each well. 250 μl saline, or drug solutions were added to the appropriate wells in triplicate (bringing the final drug dilution to one-quarter of the stock drug treatment solution concentrations). 10 μl of TGF beta 3 solution (supplied by Cyagen) was added to each well, and the plates were returned to the incubator.
# (§6) RNA isolation and analysis was conducted for all plates as follows at days 7, 14, and 22 post treatment (with the described medium exchanges). […] Qiagen RNeasy plus lysis buffer (with 2mercaptoethanol) was added to each well and gently shaken for 10 minutes. The lysed cell suspensions from each well were transferred to Qiashredder columns and spun at 14,000 rpm for 2 minutes. RNA isolation proceeded by RNeasy™ plus manufacturer's protocol. RNA was eluted from the Qiagen columns using 25 μl RNase free water.
# (§7) cDNA synthesis and real time PCR was conducted as follows. First strand synthesis of cDNA from all samples was performed in 20 μl total volume using 10 μl isolated RNA. All cDNA reactions were then diluted with 30 μl nuclease free water. Real time PCR was then performed using 5 μl diluted cDNA, Roche Syber green master mix, and Qiagen RT^2 gPCR™ primer pairs in 20 μl total reaction volume. Relative gene expression was determined by delta deta Ct method.
# MMP13 = assay: Stem cell chondrogenesis, real time PCR gene expression: MMP13; format: cell-based, human; settings: for Mean regulation: vs saline; for Mean ΔCp / ΔCp: MMP13 vs GAPDH
# Protocol: as §1, §2, §3, §4, §5, §6, §7
# SOX9 = assay: Stem cell chondrogenesis, real time PCR gene expression: SOX9; format: cell-based, human; settings: Day 14
# Protocol: The treatment protocol included expanding 5 HUXMA stem cells in 182 cm^2 flasks containing 40 […] to 80-90% confluence. Cells were trypsinized from the flasks and a 1.0×10^7 cell suspension of HUXMA stem cells was warmed in Cyagen Chondrogenic Differentiation medium. 20 μl of warmed cell suspension was spotted in the middle of each well of a 24-well tissue culture plate (200,000 cells per spot), and incubated at 37° C. and 5% CO2 for one hour. […] Medium exchanges were performed every 3-4 days by aspirating the medium from the wells and replacing with fresh chondrogenic medium, diluted stocks, and TGF beta 3, as described above. […] Medium from the wells was removed and saved for further protein analysis. Qiagen RNeasy plus lysis buffer (with 2mercaptoethanol) was added to each well and gently shaken for 10 minutes. The lysed cell suspensions from each well were transferred to Qiashredder columns and spun at 14,000 rpm for 2 minutes. RNA isolation proceeded by RNeasyTM plus manufacturer's protocol. RNA was eluted from the Qiagen columns using 25 μl RNase free water. cDNA synthesis and real time PCR was conducted as follows. First strand synthesis of cDNA from all samples was performed in 20 μl total volume using 10 μl isolated RNA. All cDNA reactions were then diluted with 30 μl nuclease free water. Real time PCR was then performed using 5 μl diluted cDNA, Roche Syber green master mix, and Qiagen RT^2 gPCRTM primer pairs in 20 μl total reaction volume.
# Aggrecan = assay: Stem cell chondrogenesis, real time PCR gene expression: Aggrecan; format: cell-based, human; settings: for Mean ΔCp / ΔCp: Aggrecan vs Actin; for Mean ΔCp / ΔCp / Cp Agg / Mean regulation: Day 22; for Cp Agg / Mean regulation: Aggrecan; for Mean regulation: vs saline
# Protocol: as §1, §2, §3, §4, §5, §6, §7
# TIMP1 = assay: Stem cell chondrogenesis, real time PCR gene expression: TIMP1; format: cell-based, human; settings: Day 22; for Mean ΔCp / ΔCp: TIMP1 vs Actin
# Protocol: as §1, §2, §3, §4, §5, §6, §7
# [1] = system: Bone marrow derived human mesenchymal stem cells; assay: Visual observation of cell aggregates in chondrogenic culture; format: cell-based; settings: day seven
# [2] = Day 7, vs Actin, single replicate well
# [3] = vs Actin, single replicate well
smiles,measurement,setting,value
"C[C@@H]1NC(=O)[C@H](CC(=O)O)NC1=O [DADKP, aspartyl-alanyl diketopiperazine]",Cp Coll,Collagen 2A1; Table 12,27.41 and 25.44 and 22.94
same,Cp Coll,Collagen 2A1; Table 16,27.41 and 25.44 and 22.94
same,Mean regulation,Collagen 2A1; Table 12,136.83
same,Mean regulation,Collagen 2A1; Table 16,136.83
same,Mean ΔCp,Collagen 2A1; Table 12,7.223
same,Mean ΔCp,Collagen 2A1; Table 16,7.223
same,"regulation, Collagen 2A1",Collagen 2A1; Day 7,1.65 and −2.28 and −1.25
same,"Mean regulation, Collagen 2A1",Collagen 2A1; Day 7,−0.62
same,"ΔCp, Collagen 2A1",Collagen 2A1; Day 7,6.01 and 7.92 and 7.05
same,"2^-ΔΔCp vs saline, Collagen 2A1",Collagen 2A1; Day 7,1.651 and 0.4393 and 0.8029
same,"ΔΔCp vs saline, Collagen 2A1",Collagen 2A1; Day 7,−0.72 and 1.187 and 0.317
same,"Mean ΔCp, Collagen 2A1",Collagen 2A1; Day 7,6.993
same,"regulation, Collagen 2A1",Collagen 2A1; Day 14,1.48 and 2.56 and −1.02
same,"Mean regulation, Collagen 2A1",Collagen 2A1; Day 14,1.01
same,"ΔCp, Collagen 2A1",Collagen 2A1; Day 14,10.49 and 9.7 and 11.09
same,"2^-ΔΔCp vs saline, Collagen 2A1",Collagen 2A1; Day 14,1.4811 and 2.5609 and 0.9772
same,"ΔΔCp vs saline, Collagen 2A1",Collagen 2A1; Day 14,−0.57 and −1.36 and 0.033
same,"Mean ΔCp, Collagen 2A1",Collagen 2A1; Day 14,10.43
same,collagen transcription (in words),Collagen 2A1; day 22,greatly enhanced
same,increase in transcription of Collagen 2a1,Collagen 2A1; day 22,2000 fold
same,collagen transcription (in words),"Collagen 2A1; day fourteen, compared with the control in a pellet",still elevated
same,"regulation, MMP13","MMP13; Day 7, fold regulation vs saline, single replicate well",−1.29 and 1.03 and −1.76
same,"Mean regulation, MMP13","MMP13; Day 7, fold regulation vs saline, triplicate wells",−0.67
same,"ΔCp, MMP13","MMP13; Day 7, human bone marrow MSC, chondrogenic medium + TGF beta 3, vs Actin, single replicate well",5 and 4.6 and 5.45
same,"2^-ΔΔCp vs saline, MMP13",MMP13; [2],0.7774 and 1.0257 and 0.5691
same,"ΔΔCp vs saline, MMP13",MMP13; [2],0.363 and −0.04 and 0.813
same,"Mean ΔCp, MMP13","MMP13; Day 7, vs Actin, triplicate wells",5.017
same,"Cp, MMP13","MMP13; MMP13, Day 22, Table 12",20.34 and 21.41 and 21.25
same,2^-ΔΔCp vs saline,"MMP13; MMP13, Day 22, Table 16",1.1277 and 1.0163 and 0.9352
same,"Cp, MMP13","MMP13; MMP13, Day 22, Table 16",20.34 and 21.41 and 21.25
same,Mean regulation,"MMP13; MMP13, Day 22, Table 12",0.36
same,Mean regulation,"MMP13; MMP13, Day 22, Table 16",0.36
same,Mean ΔCp,"MMP13; Day 22, Table 12",2.96
same,ΔCp,"MMP13; Day 22, Table 12",2.82 and 2.97 and 3.09
same,Mean ΔCp,"MMP13; Day 22, Table 16",2.96
same,ΔCp,"MMP13; Day 22, Table 16",2.82 and 2.97 and 3.09
same,"regulation, SOX9","SOX9; fold regulation vs saline, single replicate well",−1.59 and 1.07 and 1.10
same,"Mean regulation, SOX9","SOX9; fold regulation vs saline, triplicate wells",0.19
same,"ΔCp, SOX9","SOX9; human bone marrow MSC, chondrogenic medium + TGF beta 3, vs Actin, single replicate well",7.85 and 7.08 and 7.04
same,"2^-ΔΔCp vs saline, SOX9",SOX9; [3],0.6285 and 1.0718 and 1.1019
same,"ΔΔCp vs saline, SOX9",SOX9; [3],0.67 and −0.1 and −0.14
same,"Mean ΔCp, SOX9","SOX9; vs Actin, triplicate wells",7.323
same,Mean ΔCp,Aggrecan; Table 12,7.28
same,ΔCp,Aggrecan; Table 12,9.06 and 6.83 and 5.95
same,Mean ΔCp,Aggrecan; Table 16,7.28
same,ΔCp,Aggrecan; Table 16,9.06 and 6.83 and 5.95
same,Cp Agg,Aggrecan; Table 12,24.7 and 23.56 and 22.36
same,Cp Agg,Aggrecan; Table 16,24.7 and 23.56 and 22.36
same,Mean regulation,Aggrecan; Table 12,10.65
same,Mean regulation,Aggrecan; Table 16,10.65
same,increase in transcription of aggrecan,Aggrecan; day 22,20 fold
same,Cp TIMP1,"TIMP1; TIMP1, Table 12",18.64 and 19.9 and 19.36
same,2-^ΔΔCp vs saline,"TIMP1; TIMP1, Table 16",1.7013 and 1.5122 and 1.7613
same,Cp TIMP1,"TIMP1; TIMP1, Table 16",18.64 and 19.9 and 19.36
same,Mean regulation,"TIMP1; TIMP1, vs saline, Table 12",1.66
same,regulation,"TIMP1; TIMP1, vs saline, Table 12",1.70 and 1.51 and 1.76
same,regulation,"TIMP1; TIMP1, vs saline, Table 16",1.70 and 1.51 and 1.76
same,Mean ΔCp,TIMP1; Table 12,3.04
same,ΔCp,TIMP1; Table 12,3 and 3.17 and 2.95
same,Mean ΔCp,TIMP1; Table 16,3.04
same,ΔCp,TIMP1; Table 16,3 and 3.17 and 2.95
same,form of the culture (discs or pellets),[1],pulled into loose pellets
